Converted amounts (≈) assume the structure as drawn.
Legend:
[1] = target: SV40 T Ag (Simian virus 40, UniProt P03070); assay: steady state ATPase assay with SV40 T Ag; format: biochemical; details: for inhibition of SV40 T Ag ATPase activity at 100 μM: final concentration 100 μM, percent activity relative to T Ag without inhibitor
[2] = tested on: SV40; assay: SV40 viral DNA replication assay in CV1 cells; format: cell-based, Simian Virus 40 in CV1 monkey kidney cells; details: monkey kidney cells, range of concentrations
[3] = aqueous solubility by LC-HRMS; format: physicochemical; details: distilled water, 30 °C, thermodynamic from solid
[4] = target: human Hsp70 (Homo sapiens, UniProt P0DMV8); assay: steady state ATPase assay with human Hsp70; format: biochemical
[5] = target: human Hsp70 in the presence of a J domain containing yeast protein (Hlj1) (Homo sapiens, UniProt P0DMV8); assay: steady state ATPase assay, Hsp70 stimulated by J domain protein Hlj1; format: biochemical
[6] = target: human Hsp70 in the presence of a human J domain-containing protein (Hdj2) (Homo sapiens, UniProt P0DMV8); assay: steady state ATPase assay, Hsp70 stimulated by J domain protein Hdj2; format: biochemical; details: 100 μM versus DMSO control, 60-min time course
[7] = compound stability in male mouse liver microsomes; format: in vitro ADME
[8] = tested on: HEK293 cells; assay: HEK293 cell viability; format: cell-based, human; details: 20 h incubation, Cell Titer-Glo

Chain of SV40 T Ag (P03070 whole entry): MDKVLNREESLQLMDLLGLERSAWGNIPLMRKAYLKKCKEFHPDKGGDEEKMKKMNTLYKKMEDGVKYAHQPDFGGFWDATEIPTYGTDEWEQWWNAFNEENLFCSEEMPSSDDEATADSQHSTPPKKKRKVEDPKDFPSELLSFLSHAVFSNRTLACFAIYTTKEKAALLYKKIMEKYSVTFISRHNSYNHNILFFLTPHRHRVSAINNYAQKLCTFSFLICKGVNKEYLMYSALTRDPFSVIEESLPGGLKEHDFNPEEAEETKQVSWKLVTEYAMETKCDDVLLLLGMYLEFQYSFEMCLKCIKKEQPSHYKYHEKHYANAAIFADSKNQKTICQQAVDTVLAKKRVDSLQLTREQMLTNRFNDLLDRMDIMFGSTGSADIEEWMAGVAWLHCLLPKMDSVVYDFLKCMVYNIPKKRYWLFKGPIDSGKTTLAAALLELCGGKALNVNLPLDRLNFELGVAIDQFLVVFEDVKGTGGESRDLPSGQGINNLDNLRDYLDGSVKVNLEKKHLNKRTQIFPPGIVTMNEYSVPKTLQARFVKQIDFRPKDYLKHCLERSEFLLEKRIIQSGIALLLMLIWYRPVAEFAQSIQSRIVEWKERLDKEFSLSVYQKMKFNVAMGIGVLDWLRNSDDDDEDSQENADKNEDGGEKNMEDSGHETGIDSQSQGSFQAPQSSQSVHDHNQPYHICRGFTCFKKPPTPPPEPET
Chain of human Hsp70 (P0DMV8 whole entry): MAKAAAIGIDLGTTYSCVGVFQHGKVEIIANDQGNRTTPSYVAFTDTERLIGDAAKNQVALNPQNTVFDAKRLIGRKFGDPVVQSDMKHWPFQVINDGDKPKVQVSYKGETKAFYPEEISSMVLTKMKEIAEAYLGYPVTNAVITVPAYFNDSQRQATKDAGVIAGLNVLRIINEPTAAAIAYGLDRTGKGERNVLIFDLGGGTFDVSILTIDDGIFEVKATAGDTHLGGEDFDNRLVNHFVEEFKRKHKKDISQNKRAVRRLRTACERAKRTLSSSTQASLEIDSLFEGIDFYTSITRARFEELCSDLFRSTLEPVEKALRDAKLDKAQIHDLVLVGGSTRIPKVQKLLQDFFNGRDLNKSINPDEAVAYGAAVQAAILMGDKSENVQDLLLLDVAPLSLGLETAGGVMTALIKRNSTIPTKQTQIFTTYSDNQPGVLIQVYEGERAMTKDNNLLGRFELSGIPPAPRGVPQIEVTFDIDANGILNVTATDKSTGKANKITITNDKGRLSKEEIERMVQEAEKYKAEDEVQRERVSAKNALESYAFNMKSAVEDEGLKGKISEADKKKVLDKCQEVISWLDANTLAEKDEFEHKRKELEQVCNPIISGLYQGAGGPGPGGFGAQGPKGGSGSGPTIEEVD
Chain of human Hsp70 in the presence of a human J domain-containing protein (Hdj2) (P0DMV8 whole entry): as above
Chain of human Hsp70 in the presence of a J domain containing yeast protein (Hlj1) (P0DMV8 whole entry): as above

| SMILES | IC50 [1] | inhibition of SV40 T Ag ATPase activity at 100 μM [1] | inhibition of SV40 replication (viral DNA by qPCR) [2] | solubility at 24 h [3] | further results |
| --- | --- | --- | --- | --- | --- |
| CC1=C(C(=O)OCc2ccccc2)C(c2ccc(-c3ccccc3C)cc2)NC(=O)N1CCCCCc1nnn[nH]1 (stereo not drawn) [LR340-006, Benzyl 1-(5-(1H-tetrazol-5-yl)pentyl)-6-methyl-4-(2′-methyl-[1,1′-biphenyl]-4-yl)-2-oxo-1,2,3,4-tetrahydropyrimidine-5-carboxylate] | ~50 µM |  |  |  | inhibition of SV40 T Ag ATPase activity, titration ([1]; titration at 10, 30 and 100 μM): most potent |
| CC1=C(C(=O)OCc2ccccc2)C(c2ccc(-c3ccccc3)cc2)NC(=O)N1Cc1ccc(-c2nnn[nH]2)cc1 (stereo not drawn) [ML282-56, Benzyl 1-(4-(1H-tetrazol-5-yl)benzyl)-4-([1,1′-biphenyl]-4-yl)-6-methyl-2-oxo-1,2,3,4-tetrahydropyrimidine-5-carboxylate] | ~50 µM | inhibited T Ag ATPase activity | inhibited viral replication | 14.4 ± 0.5 µg/mL (≈ 25.9 µM) |  |
| CC1=C(C(=O)OCc2ccccc2)C(c2ccc(-c3ccccc3)cc2)NC(=O)N1CCCCCC(=O)NS(C)(=O)=O (stereo not drawn) [ML282-66, Benzyl 4-([1,1′-biphenyl]-4-yl)-6-methyl-1-(6-(methylsulfonamido)-6-oxohexyl)-2-oxo-1,2,3,4-tetrahydropyrimidine-5-carboxylate] |  | inhibited T Ag ATPase activity |  |  | inhibition of SV40 T Ag ATPase activity at 30 μM ([1]; titration, 30 μM): reduced compared to ML282-56 |
| CC1=C(C(=O)OCc2ccccc2)C(c2ccc(-c3ccccc3C)cc2)NC(=O)N1Cc1ccc(-c2nnn[nH]2)cc1 (stereo not drawn) [SMAL, Benzyl 1-(4-(1H-tetrazol-5-yl)benzyl)-6-methyl-4-(2′-methyl-[1,1′-biphenyl]-4-yl)-2-oxo-1,2,3,4-tetrahydropyrimidine-5-carboxylate] | ~5 µM |  | inhibited viral replication | 62.4 ± 3.1 µg/mL (≈ 109 µM) | IC50 [4]: ~24 µM; inhibition of endogenous Hsp70 ATPase activity at 30 μM ([4]; final concentration 30 μM versus DMSO control): inhibited the endogenous activity of Hsp70; IC50 [5]: > 30 µM; inhibition of Hdj2 activation of Hsp70 ATPase [6]: stronger than MAL2-11B tetrazole; compound remaining after 60 min incubation ([7]; male mouse liver microsomes, NADPH, 1 h): ~ 68%; stability in liver microsomes ([7]; murine liver microsomes): quite stable |
| CN[C@@H]1C[C@H]2O[C@@](C)([C@@H]1OC)n1c3ccccc3c3c4c(c5c6ccccc6n2c5c31)C(=O)NC4 [Staurosporine] |  |  |  |  | LD50 [8]: < 3 µM |
